“And” between values parts separate entries of the source, which are not always exact repeats. Equal values may be shown once.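 Five compound concentrations were applied to cells in 96-well plates for 48 hours; endpoints were derived by simple linear interpolation of the resulting dose-response curve. Abbreviation: GI50, concentration required for 50% inhibition of growth. TGI marks complete inhibition of growth.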
Legend:
Experiment in all cases: NCI-60 cell line screen, 48 h
HCT-15 colon = system: HCT-15 colon
M14 melanoma = system: M14 melanoma
MDA-MB-435 = system: MDA-MB-435
MOLT-4 leukemia = system: MOLT-4 leukemia
NCI-H460 lung = system: NCI-H460 lung
NCI/ADR-RES ovarian = system: NCI/ADR-RES ovarian
RPMI-8226 leukemia = system: RPMI-8226 leukemia
SF-295 CNS = system: SF-295 CNS
SK-OV-3 ovarian = system: SK-OV-3 ovarian
UACC-257 melanoma = system: UACC-257 melanoma

SMILES | GI50 (HCT-15 colon) | TGI (HCT-15 colon) | GI50 (M14 melanoma) [µM] | TGI (M14 melanoma) | GI50 (MDA-MB-435) [µM] | TGI (MDA-MB-435) | GI50 (MOLT-4 leukemia) | TGI (MOLT-4 leukemia) | GI50 (NCI-H460 lung) | TGI (NCI-H460 lung) | GI50 (NCI/ADR-RES ovarian) | TGI (NCI/ADR-RES ovarian) | GI50 (RPMI-8226 leukemia) | TGI (RPMI-8226 leukemia) | GI50 (SF-295 CNS) | TGI (SF-295 CNS) | GI50 (SK-OV-3 ovarian) | TGI (SK-OV-3 ovarian) | GI50 (UACC-257 melanoma) | TGI (UACC-257 melanoma)
COc1cc2cc(Oc3ccc(NC(=O)c4cccc(C(F)(F)F)c4)cc3)c(C)nc2cc1OC | 4.65 µM | > 100 µM | 4.02 | > 100 µM | 5.39 | > 100 µM | 4.72 µM | > 100 µM | 4.07 µM | > 100 µM | 4.02 µM | > 100 µM | 3.67 µM | > 100 µM | 2.73 µM | > 100 µM | > 100 µM | > 100 µM | 5.41 µM | > 100 µM
N/C(=N\OC(=O)c1ccccc1)C(C(=O)NOC(=O)c1ccccc1)C1CCCCC1 (configuration not stated) | 9.65 µM | 23.5 µM | 10.9 | 23 µM | 2.21 | 5.59 µM | 6.62 µM | 49.8 µM | 2.85 µM | 9.61 µM | 3.79 µM | 16 µM | 3.12 µM | 12.2 µM | 2.11 µM | 5.73 µM | 15.8 µM | 29.7 µM | 13.7 µM | 28.7 µM
COC(=O)c1ccc2c(c1)C(NC(C)=O)CCc1cc(OC)c(OC)c(OC)c1-2 (configuration not stated) |  | > 44.3 µM |  | > 31.6 µM |  | < 0.01 µM |  | 51.6 µM |  | 3.23 µM |  | 3.71 µM |  | > 100 µM |  | 3.03 µM |  | 13.9 µM |  | > 100 µM
CC1(C)N=C(N)N=C(N)N1c1ccc(CCc2ccccc2)c(Cl)c1 | 2.55 µM | > 100 µM | 0.124 | 13.7 µM | 0.0528 | 15.7 µM | 0.0648 µM | 13.5 µM | 0.042 µM | 11.6 µM | 37 µM | > 100 µM | 0.336 µM | 14 µM | 0.0529 µM | 11.3 µM | 1.04 µM | 18.4 µM | 0.392 µM | 13.1 µM
COC(=O)C1=C(OC(=O)c2ccc(Cl)cc2)C(C(=O)OC)[C@@]2(O)[C@@H](C(=O)OC)C(c3ccccc3C(F)(F)F)C[C@@H]1[C@@H]2C(=O)OC (some centres not stated) | 2.87 µM | 14.6 µM | 3.16 | 13 µM | 17.6 | 50.2 µM | 2.7 µM | 7.86 µM | 6.53 µM | 77.1 µM | 3.11 µM | > 100 µM | 2.99 µM | > 100 µM |  |  | 5.99 µM | 60 µM | 2.76 µM | 8.32 µM
CSc1ccc(/C=C2\CNC/C(=C\c3ccc(SC)cc3)C2=O)cc1 | 112 µg/mL | > 371 µM and 150 µg/mL |  | > 371 µM |  | > 371 µM | 150 µg/mL | > 371 µM and 150 µg/mL | 114 µg/mL | > 371 µM and 150 µg/mL | 150 µg/mL | 150 µg/mL | 61.9 µg/mL | > 371 µM and 150 µg/mL | 9.25 µg/mL | > 150 µM and 33.5 µg/mL | 77.8 µg/mL | > 170 µM and 148 µg/mL | 150 µg/mL | > 371 µM and 150 µg/mL
C[C@]12CC[C@@H]3c4ccc(O)c([N+](=O)[O-])c4CC[C@H]3[C@@H]1CC[C@@H]2NS(=O)(=O)c1ccc(C(F)(F)F)cc1 | 1.71 µM | 3.58 µM | 1.92 | 3.91 µM | 1.74 | 3.63 µM | 2.08 µM | 5.99 µM | 2.11 µM | 4.83 µM | 1.95 µM | 4.7 µM | 2.17 µM | 5.4 µM | 2.96 µM | 10.6 µM | 2.65 µM | 7.36 µM | 1.87 µM | 4.74 µM
C=C1C(=O)O[C@@H]2C[C@@]3(C)CC(=O)C=C(C)[C@@H]3C[C@H]12 |  | 15.2 µM |  | 32.7 µM |  | 30.5 µM |  | 21.8 µM |  |  |  | 40.4 µM |  | 5.45 µM |  | > 100 µM |  | > 100 µM |  | 41.7 µM
CCc1nc(N)nc(N)c1-c1ccc([N+](=O)[O-])c(NCc2ccccc2)c1 |  | 38.2 µM |  | 39.9 µM |  | 38.3 µM |  | 26.6 µM |  | 20.2 µM |  | 38.2 µM |  | 32.2 µM |  | 28.4 µM |  | > 55.1 µM |  | 30.9 µM
CNC(=O)Nc1ccc(-c2nc(N3CCOCC3)nc3c2cnn3C2CCOCC2)cc1 | 0.26 µM | > 100 µM | 0.233 |  | 0.168 | 0.821 µM | 0.355 µM | > 26.8 µM | 0.131 µM | > 100 µM | 0.511 µM | > 22.5 µM | 0.205 µM |  | 0.0716 µM | 0.585 µM | 0.12 µM | 0.685 µM | 0.184 µM | 1.4 µM
Clc1ccc(COC(Cn2ccnc2)c2ccc(Cl)cc2Cl)cc1 (configuration not stated) | 3.24 µM | 12.7 µM and 27.5 µM | 2.92 | 10.2 µM and 29.8 µM and 26.2 µM | 2.91 | 11.7 µM and 24.4 µM and 24 µM | 2.03 µM | 5.89 µM and 20.7 µM and 18.1 µM | 2.69 µM | 10.1 µM and 44.4 µM and 28.7 µM | 0.787 µM | 7.56 µM and 23.3 µM and 24.9 µM | 1.9 µM | 6.82 µM and 32.3 µM and 23.2 µM | 1.9 µM | 8.99 µM and 24 µM and 23.6 µM | 4.24 µM | 14.8 µM and 26.8 µM and 35.2 µM | 2.63 µM | 9.14 µM and 27.7 µM and 22.5 µM
N#CC(C#N)SCc1ccccc1 |  | > 92 µM |  | > 100 µM |  | 35.7 µM |  | > 100 µM |  | > 41.6 µM |  | > 100 µM |  | > 38.6 µM |  | > 100 µM |  | > 49 µM |  | > 100 µM
COc1cc(-c2oc3ccccc3c(=O)c2O)cc(OC)c1OC |  | > 100 µM |  | > 100 µM |  | > 100 µM |  | > 100 µM |  | > 100 µM |  | > 100 µM |  | > 100 µM |  | > 100 µM |  | > 100 µM |  | > 100 µM
CC1(C)CCC(C)(C)c2cc(C(=O)Nc3ccc(C(=O)O)cc3)ccc21 |  | 63 µM |  | 51.1 µM |  | > 74.3 µM |  | > 76.8 µM |  | 46.9 µM |  | 47.3 µM |  | 57.7 µM |  | > 54.7 µM |  | > 61.1 µM |  | > 67.7 µM
COc1ccc(-n2nnc3c(sc4ccccc43)c2=O)cc1 | > 100 µM | > 100 µM | > 100 | > 100 µM | > 100 | > 100 µM | > 100 µM | > 100 µM |  |  | > 100 µM | > 100 µM | > 100 µM | > 100 µM |  |  |  |  | > 100 µM | > 100 µM
